Like-named read-outs stand apart in the source and are kept apart here.
Columns and labels:
Format in all cases: in vivo
[1] = tested on: Hordeum vulgare (spring barley); conditions: HORVS
From the text: (§1) Greenhouse Trial Methodology—Evaluation of Postemergence Herbicidal Effect
(§2) Seeds of the desired test plant species were planted in a 90:10% v/v (volume/volume) mixture of PRO-MIX® BX (Premier Tech Horticulture, Quakertown, Pa., USA) and PROFILE® GREENS GRADE™ (Profile Products LLC, Buffalo Grove, Ill., USA) planting mixture, which typically has a pH of 5.2 to 6.2 and an organic matter content of at least 50 percent, in plastic pots with a surface area of 103.2 square centimeters (cm^2). In some aspects, to help ensure good germination and healthy plants, a fungicide treatment and/or other chemical or physical treatment was applied. The plants were grown for 7-36 days (d) in a greenhouse with an approximate 14-hour (h) photoperiod which was maintained at about 23° C. during the day and 22° C. during the night. Nutrients and water were added on a regular basis and supplemental lighting was provided with overhead metal halide 1000-Watt lamps as necessary. The plants were employed for testing when they reached the second or third true leaf stage.
(§3) Emulsifiable concentrates of each of each pyridine carboxylate herbicide (Compound A or Compound B) were prepared at 100 grams acid equivalent per liter (g ae/L). The emulsifiable concentrates also included a safener, at 120 grams active ingredient per liter (g ai/L). An aliquot of each emulsifiable concentrate was placed in a 25 mL glass vial and diluted with an aqueous mixture of 1.25% (v/v) ACTIROB® B esterified rapeseed oil (Bayer Crop Science, Research Triangle Park, N.C., USA) or MSO® Concentrate with LECI-TECH® methylated soybean oil (Loveland Products, Loveland, Colo., USA) to obtain concentrated stock solutions at the highest application rate for each herbicide, based upon a 12 milliliter (mL) application volume at a rate of 187 liters per hectare (L/ha). The concentrated stock solutions were further diluted with an aqueous mixture of 1.25% v/v ACTIROB® B or MSO® Concentrate with LECI-TECH® to obtain stock solutions at reduced application rates for each herbicide. Spray solutions of the herbicide combinations (Compound A or Compound B plus the CBI herbicide) were prepared by adding weighed amounts or aliquots of the CBI herbicide to the stock solutions of Compound A or Compound B to form 12-mL spray solutions in two-way combinations.
(§4) The spray solutions were applied to the plant material with an overhead Mandel track sprayer equipped with 8002E nozzles calibrated to deliver 187 L/ha over an application area of 0.503 square meters (m^2) at a spray height of 18 inches (43 centimeters (cm)) above the average plant canopy. Control plants were sprayed in the same manner with the solvent blank. All pyridine carboxylate herbicide (component a) application rates are given as “g ae/ha” and all CBI herbicide (component b) application rates are given as “g ai/ha.”
(§5) The treated plants and control plants were placed in a greenhouse as described above and watered by sub-irrigation to prevent wash-off of the test compounds. After 20-22 d, the condition of the test plants as compared with that of the control plants was determined visually and scored on a scale of 0 to 100 percent where 0 corresponds to no injury and 100 corresponds to complete kill.

[2] = tested on: Setaria faberi (giant foxtail); experiment: Greenhouse postemergence herbicidal effect, visual injury after 20-22 d; conditions: SETFA
From the text: as §1, §2, §3, §4, §5

[3] = tested on: Helianthus annuus (common sunflower); experiment: as above; conditions: Table 1, HELAN
From the text: as §1, §2, §3, §4, §5

[4] = tested on: Sorghum vulgare (grain sorghum); experiment: as above; conditions: Table 1, SORVU
From the text: as §1, §2, §3, §4, §5

[5] = tested on: Cyperus esculentus (nutsedge); experiment: as above; conditions: Table 1, CYPES
From the text: as §1, §2, §3, §4, §5

[6] = tested on: Oryza sativa (common rice); experiment: as above; conditions: Table 1, ORYSA
From the text: as §1, §2, §3, §4, §5

[7] = tested on: Ipomoea hederacea (ivyleaf morningglory); experiment: as above; conditions: IPOHE
From the text: as §1, §2, §3, §4, §5

[8] = tested on: Brassica napus (winter rape); experiment: as above; conditions: BRSNW
From the text: as §1, §2, §3, §4, §5

[9] = tested on: Rumex obtusifolius (broad-leaf dock); experiment: as above; conditions: Table 1, RUMOB
From the text: as §1, §2, §3, §4, §5

[10] = tested on: Abutilon theophrasti (velvetleaf); experiment: as above; conditions: ABUTH
From the text: as §1, §2, §3, §4, §5

[11] = tested on: Digitaria sanguinalis (large crabgrass); experiment: as above; conditions: DIGSA
From the text: as §1, §2, §3, §4, §5

[12] = tested on: Echinochloa crus-galli (barnyard grass); experiment: as above; conditions: ECHCG
From the text: as §1, §2, §3, §4, §5

[13] = tested on: Polygonum convolvulus (wild buckwheat); experiment: as above; conditions: POLCO
From the text: as §1, §2, §3, §4, §5

N#CCOC(=O)c1nc(-c2ccc3cc[nH]c3c2F)c(F)c(N)c1Cl [Compound A, cyanomethyl 4-amino-3-chloro-5-fluoro-6-(7-fluoro-1H-indol-6-yl)pyridine-2-carboxylate]
Obs % visual injury ([1]; Table 3, Compound A 7.5 g/ha): 8% | Obs % visual injury ([1]; Table 3, Compound A 10 g/ha): 5% | Obs % visual injury ([1]; Table 3, Compound A 15 g/ha): 3% | Obs % visual injury ([1]; Table 4, Compound A 7.5 g/ha): 8% | Obs % visual injury ([1]; Table 4, Compound A 10 g/ha): 5% | Obs % visual injury ([1]; Table 4, Compound A 15 g/ha): 3% | Obs % visual injury ([2]; Table 1, Compound A 7.5 g/ha): 78% | Obs % visual injury ([2]; Table 1, Compound A 10 g/ha): 80% | Obs % visual injury ([2]; Table 2, Compound A 7.5 g/ha): 70% | Obs % visual injury ([2]; Table 2, Compound A 10 g/ha): 70% | Obs % visual injury ([3]; Compound A 7.5 g/ha): 90% | Obs % visual injury ([3]; Compound A 10 g/ha): 89% | Obs % visual injury ([4]; Compound A 7.5 g/ha): 0% | Obs % visual injury ([4]; Compound A 10 g/ha): 0% | Obs % visual injury ([5]; Compound A 7.5 g/ha): 30% | Obs % visual injury ([5]; Compound A 10 g/ha): 8% | Obs % visual injury ([6]; Compound A 7.5 g/ha): 3% | Obs % visual injury ([6]; Compound A 10 g/ha): 8% | Obs % visual injury ([7]; Table 1, Compound A 7.5 g/ha): 20% | Obs % visual injury ([7]; Table 1, Compound A 10 g/ha): 25% | Obs % visual injury ([7]; Table 2, Compound A 7.5 g/ha): 3% | Obs % visual injury ([7]; Table 2, Compound A 10 g/ha): 8% | Obs % visual injury ([8]; Table 3, Compound A 7.5 g/ha): 60% | Obs % visual injury ([8]; Table 3, Compound A 10 g/ha): 60% | Obs % visual injury ([8]; Table 3, Compound A 15 g/ha): 75% | Obs % visual injury ([8]; Table 4, Compound A 7.5 g/ha): 60% | Obs % visual injury ([8]; Table 4, Compound A 10 g/ha): 60% | Obs % visual injury ([8]; Table 4, Compound A 15 g/ha): 75% | Obs % visual injury ([9]; Compound A 7.5 g/ha): 20% | Obs % visual injury ([9]; Compound A 10 g/ha): 13% | Obs % visual injury ([10]; Table 1, Compound A 7.5 g/ha): 68% | Obs % visual injury ([10]; Table 1, Compound A 10 g/ha): 80% | Obs % visual injury ([10]; Table 2, Compound A 7.5 g/ha): 68% | Obs % visual injury ([10]; Table 2, Compound A 10 g/ha): 78% | Obs % visual injury ([11]; Table 1, Compound A 7.5 g/ha): 35% | Obs % visual injury ([11]; Table 1, Compound A 10 g/ha): 38% | Obs % visual injury ([11]; Table 2, Compound A 7.5 g/ha): 45% | Obs % visual injury ([11]; Table 2, Compound A 10 g/ha): 25% | Obs % visual injury ([12]; Table 1, Compound A 7.5 g/ha): 88% | Obs % visual injury ([12]; Table 1, Compound A 10 g/ha): 80% | Obs % visual injury ([12]; Table 2, Compound A 7.5 g/ha): 73% | Obs % visual injury ([12]; Table 2, Compound A 10 g/ha): 78% | Obs % visual injury ([13]; Table 1, Compound A 7.5 g/ha): 83% | Obs % visual injury ([13]; Table 1, Compound A 10 g/ha): 93% | Obs % visual injury ([13]; Table 2, Compound A 7.5 g/ha): 75% | Obs % visual injury ([13]; Table 2, Compound A 10 g/ha): 70% | Obs % visual injury ([13]; Table 3, Compound A 7.5 g/ha): 63% | Obs % visual injury ([13]; Table 3, Compound A 10 g/ha): 60% | Obs % visual injury ([13]; Table 3, Compound A 15 g/ha): 63% | Obs % visual injury ([13]; Table 4, Compound A 7.5 g/ha): 63% | Obs % visual injury ([13]; Table 4, Compound A 10 g/ha): 60% | Obs % visual injury ([13]; Table 4, Compound A 15 g/ha): 63%

Reference: patent US20220000110A1, “COMPOSITIONS COMPRISING PYRIDINE CARBOXYLATE HERBICIDES AND CELLULOSE BIOSYNTHESIS INHIBITOR HERBICIDES” (priority 2018, published 2022)
